Assay results: patent publication US9611275B2 (priority 2012, dated 2017)
Where two headings read alike, the source gives them in different places.

What was measured:
[1] = system: LLC-PK1 cells; assay: Assay for determination of apparent permeability (Papp), bi-directional transport; conditions: comparative compounds described in PCT/US11/059668; LLC-PK1 cells
[2] = target: human O-GlcNAcase (Homo sapiens (Human), UniProt O60502); assay: biochemical; format: biochemical; conditions: read-out: OGA KI
[3] = Assay for determination of apparent permeability (Papp), bi-directional transport; conditions: pig, LLC-PK1
[4] = target: O-GlcNAcase in rat PC-12 cells (Rattus norvegicus (Rat), UniProt Q8VIJ5); assay: cell-based; conditions: rat PC-12 cells, 24 hours treatment, increase in O-GlcNAcylated protein; read-out: Cell based ELISA EC50
Text: Assay for Determination of Cellular Activity for Compounds that Inhibit O-GlcNAcase Activity
Inhibition of O-GlcNAcase, which removes O-GlcNAc from cellular proteins, results in an increase in the level of O-GlcNAcylated protein in cells. An increase in O-GlcNAcylated protein can be measured by an antibody, such as RL-2, that binds to O-GlcNAcylated protein. The amount of O-GlcNAcylated protein:RL2 antibody interaction can be measured by enzyme linked immunosorbant assay (ELISA) procedures.
A variety of tissue culture cell lines, expressing endogenous levels of O-GlcNAcase, can be utilized; examples include rat PC-12, and human U-87, or SK-N-SH cells. In this assay, rat PC-12 cells were plated in 96-well plates with approximately 10,000 cells/well. Compounds to be tested were dissolved in DMSO, either 2 or 10 mM stock solution, and then diluted with DMSO and water in a two-step process using a Tecan workstation. […] To prepare a cell lysate, the media from compound treated cells was removed, the cells were washed once with phosphate buffered saline (PBS) and then lysed for 5 minutes at room temperature in 50 μL of Phosphosafe reagent (Novagen Inc, Madison, Wis.) with protease inhibitors and PMSF. The cell lysate was collected and transferred to a new plate, which was then either coated to assay plates directly or frozen −80° C. until used in the ELISA procedure. If desired, the total protein concentration of samples is determined using 20 μL of the sample using the BCA method.
The plate was sealed and incubated at 37° C. for 2 hr with gentle shaking. The wells were then washed 3-times with 300 μl/well wash buffer. […] The plate was incubated for 60 min at 37° C. with gentle shaking. Each well was then washed 3-times with 300 μl/well wash buffer. The detection reagent was added, 100 μL/well of Amplex Ultra RED reagent (prepared by adding 30 μL of 10 mM Amplex Ultra Red stock solution to 10 ml PBS with 18 μL 3% hydrogen peroxide, H2O2). The detection reaction was incubated for 15 minutes at room temperature and then read with excitation at 530 nm and emission at 590 nm.

[5] = purified human O-GlcNAcase 0.7 nM, pH 7.0, room temperature, Cheng-Prusoff
[6] = comparative compounds described in PCT/US11/059668

human O-GlcNAcase, sequence (O60502 whole entry): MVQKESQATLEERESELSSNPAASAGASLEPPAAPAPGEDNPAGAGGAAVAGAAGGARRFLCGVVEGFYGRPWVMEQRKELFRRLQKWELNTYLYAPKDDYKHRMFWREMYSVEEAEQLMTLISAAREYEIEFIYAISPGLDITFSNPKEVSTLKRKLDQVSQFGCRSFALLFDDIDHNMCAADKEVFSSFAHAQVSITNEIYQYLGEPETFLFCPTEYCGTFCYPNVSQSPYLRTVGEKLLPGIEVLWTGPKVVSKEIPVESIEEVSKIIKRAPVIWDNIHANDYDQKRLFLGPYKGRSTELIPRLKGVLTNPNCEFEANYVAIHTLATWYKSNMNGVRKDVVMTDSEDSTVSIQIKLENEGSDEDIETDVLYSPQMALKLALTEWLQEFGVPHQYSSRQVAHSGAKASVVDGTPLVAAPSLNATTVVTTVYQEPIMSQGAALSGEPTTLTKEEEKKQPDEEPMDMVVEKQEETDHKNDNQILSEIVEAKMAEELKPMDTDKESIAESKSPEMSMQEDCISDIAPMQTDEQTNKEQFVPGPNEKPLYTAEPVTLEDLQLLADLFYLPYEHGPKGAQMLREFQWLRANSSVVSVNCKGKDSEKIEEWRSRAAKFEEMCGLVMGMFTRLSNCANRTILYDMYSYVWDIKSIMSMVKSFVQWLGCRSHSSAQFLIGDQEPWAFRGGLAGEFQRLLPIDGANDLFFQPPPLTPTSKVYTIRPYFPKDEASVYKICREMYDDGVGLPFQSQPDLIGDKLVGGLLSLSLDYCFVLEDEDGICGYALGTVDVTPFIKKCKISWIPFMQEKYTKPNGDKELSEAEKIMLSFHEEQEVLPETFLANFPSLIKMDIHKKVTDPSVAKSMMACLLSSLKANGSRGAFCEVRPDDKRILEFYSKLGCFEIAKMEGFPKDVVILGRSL
O-GlcNAcase in rat PC-12 cells, sequence (Q8VIJ5 whole entry): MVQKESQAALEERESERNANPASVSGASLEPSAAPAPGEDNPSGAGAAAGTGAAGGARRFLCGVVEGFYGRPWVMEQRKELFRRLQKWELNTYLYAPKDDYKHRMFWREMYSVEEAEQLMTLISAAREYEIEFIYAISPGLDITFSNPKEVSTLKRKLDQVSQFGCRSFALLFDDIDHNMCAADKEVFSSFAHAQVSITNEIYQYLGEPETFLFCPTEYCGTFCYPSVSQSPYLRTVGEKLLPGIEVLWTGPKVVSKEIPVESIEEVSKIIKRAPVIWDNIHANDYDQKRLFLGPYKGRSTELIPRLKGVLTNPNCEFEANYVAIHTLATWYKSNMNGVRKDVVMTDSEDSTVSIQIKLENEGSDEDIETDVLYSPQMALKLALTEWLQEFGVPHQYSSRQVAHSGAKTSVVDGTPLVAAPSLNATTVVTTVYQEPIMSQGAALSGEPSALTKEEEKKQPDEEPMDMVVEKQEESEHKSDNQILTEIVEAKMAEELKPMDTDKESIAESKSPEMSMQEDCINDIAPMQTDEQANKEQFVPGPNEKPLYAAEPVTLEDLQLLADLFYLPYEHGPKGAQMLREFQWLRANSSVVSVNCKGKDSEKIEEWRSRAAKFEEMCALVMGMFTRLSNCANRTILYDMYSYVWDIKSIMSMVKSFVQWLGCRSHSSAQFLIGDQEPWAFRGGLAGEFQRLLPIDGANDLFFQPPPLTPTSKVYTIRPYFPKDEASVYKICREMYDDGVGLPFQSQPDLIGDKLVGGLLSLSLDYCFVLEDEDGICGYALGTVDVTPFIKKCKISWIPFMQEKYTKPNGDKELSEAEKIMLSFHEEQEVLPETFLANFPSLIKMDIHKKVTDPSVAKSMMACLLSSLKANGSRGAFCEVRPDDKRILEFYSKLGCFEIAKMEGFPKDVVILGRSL

SMILES	Papp (X10-6 cm/sec) [1]	Ki [2] [nM]	Papp at 3 h, 1 μM [3] [×10⁻⁶ cm/s]	EC50 [4] [nM]	Ki [2, 5] [nM]	Ki [2, 6] [nM]
CO[C@@H](C)[C@H]1O[C@@H]2SC(N(C)C)=N[C@@H]2[C@@H](O)[C@@H]1O [Example 11, (3aR,5S,6S,7R,7aR)-2-(dimethylamino)-5-((S)-1-methoxyethyl)-5,6,7,7a-tetrahydro-3aH-pyrano[3,2-d]thiazole-6,7-diol]	1.6 X10-6 cm/sec	–	–	–	–	–
CN(C)C1=N[C@@H]2[C@@H](O)[C@H](O)[C@@H]([C@H](OCc3ccccc3F)C(F)(F)F)O[C@@H]2S1 [Example 62, (3aR,5S,6S,7R,7aR)-2-(dimethylamino)-5-((S)-2,2,2-trifluoro-1-(2-fluorobenzyloxy)ethyl)-5,6,7,7a-tetrahydro-3aH-pyrano[3,2-d]thiazole-6,7-diol]	1.7 X10-6 cm/sec	0.96	31.1	–	–	–
CCCO[C@H]([C@H]1O[C@@H]2SC(NC)=N[C@@H]2[C@@H](O)[C@@H]1O)C(F)(F)F [Example 79, (3aR,5S,6S,7R,7aR)-2-(methylamino)-5-((R)-2,2,2-trifluoro-1-propoxyethyl)-5,6,7,7a-tetrahydro-3aH-pyrano[3,2-d]thiazole-6,7-diol]	–	–	20.4	173	3.77	–
CNC1=N[C@@H]2[C@@H](O)[C@H](O)[C@@H]([C@@H](OCc3ccc(F)cc3)C(F)(F)F)O[C@@H]2S1 [Example 89, (3aR,5S,6S,7R,7aR)-2-(methylamino)-5-((R)-2,2,2-trifluoro-1-(4-fluorobenzyloxy)ethyl)-5,6,7,7a-tetrahydro-3aH-pyrano[3,2-d]thiazole-6,7-diol]	–	–	25.4	57.4	1.44	–
CNC1=N[C@@H]2[C@@H](O)[C@H](O)[C@@H]([C@@H](OCc3ccc(Cc4ccccc4)cc3)C(F)(F)F)O[C@@H]2S1 [Example 95, (3aR,5S,6S,7R,7aR)-5-((R)-1-(4-benzylbenzyloxy)-2,2,2-trifluoroethyl)-2-(methylamino)-5,6,7,7a-tetrahydro-3aH-pyrano[3,2-d]thiazole-6,7-diol]	<1.0 X10-6 cm/sec	–	–	–	–	0.16
CNC1=N[C@@H]2[C@@H](O)[C@H](O)[C@@H]([C@H](C)OC)O[C@@H]2S1 [Example 111, (3aR,5S,6S,7R,7aR)-5-((S)-1-methoxyethyl)-2-(methylamino)-5,6,7,7a-tetrahydro-3aH-pyrano[3,2-d]thiazole-6,7-diol]	2.7 X10-6 cm/sec	–	–	–	–	4.26
